Results published in paper PMC10096453, “One-Pot Synthesis and Evaluation of Antioxidative Stress and Anticancer Properties of an Active Chromone Derivative” (Molecules, 2023).
“And” between values parts separate entries of the source, which are not always exact repeats. Identical values can stand only once.

Key:
[1] = FRAP (ferric reducing antioxidant power) assay; type: biochemical; details: Trolox equivalent
From the text: (§1) Three in vitro antioxidant assays (DPPH, FRAP, and ABTS) were utilized to evaluate the antioxidant property of the synthesized compounds. The DPPH (α, α-diphenyl-β-picrylhydrazyl) assay is the well-known approach to determine antioxidant activity using a stable free radical DPPH, measure the absorbance change, and calculate the absorbance change in the percentage of scavenging activity. […] For example, the ferric-tripyridyltriazine (Fe^3+-TPTZ, colorless) complex is reduced to ferrous tripyridyltriazine (Fe^2+-TPTZ) at low pH and introduces a blue color with maximum absorption at 593 nm. The change in absorbance is related to antioxidant activity. However, a significant limitation of these in vitro tests is the non-physiological measurement conditions (no enzymatic condition and no transition metal ion chelating activity); therefore, the results obtained may not reflect the antioxidant activity of the source material under the biological conditions that exist in humans and animals. The ABTS assay involves a more drastic radical that is chemically produced. The use of ABTS for antioxidant activity determination of hydrophilic and lipophilic pure compounds has attracted interest due to its solubility in organic and aqueous media and stability in a wide pH range [31].
The FRAP assay is a method for assessing antioxidant power. Briefly, the FRAP reagent was prepared from acetate buffer pH 3.6, 10 mM TPTZ solution in 40 mM HCl and 20 mM FeCl3.6 H2O in relative proportions of 10:1:1, v/v, respectively. The FRAP reagent was freshly prepared daily. A solution of 5 μL of the sample (3–300 μM, approx.) was mixed with 180 μL of the FRAP reagent in a 96-well plate. The mixture was shaken in the dark for 10 min and incubated at 37 °C for 20 min, and the absorbance was determined at 593 nm. The solution without the sample was used as a blank. All determinations were made in triplicate. Trolox was used as a standard antioxidant and plot the calibration curve between absorbance and concentration. Quercetin was applied as the reference compound. The FRAP values were calculated by comparing the absorbance change in the test sample and represented in μM of Trolox equivalent per μM of sample.

[2] = ABTS radical cation scavenging assay; type: biochemical; details: for EC50: read-out: ABTS734nm EC50 ± SD
From the text: as §1
The ABTS assay was prepared by reaction of 5 mL of a 7 mM aqueous ABTS (2,2′-azino-bis (3-ethylbenzthiazoline-6-sulphonic acid) solution and 2.45 mM potassium persulfate solution (K2S2O8). After preparation and storage in the dark for 16 h, the radical cation solution was further diluted in ethanol to absorb about 0.7 at 734 nm. Trolox and test sample solutions were prepared in stock solution with DMSO and diluted with ethanol. A solution of 100 μL of the sample was mixed with 100 μL of the ABTS reagent in a 96-well plate. The mixture was shaken in a dark place for 10 min and incubated at 37 °C for 20 min, and the absorbance was determined at 734 nm. Absorbance determinations were recorded immediately and not more than 1 h after adding the reagent. The solution without the sample was used as a blank. All the determinations were made in triplicate. The sample’s scavenging percentage was calculated from this equation: scavenging percentage = (Absorbance control − Absorbance sample) × 100/Absorbance control. EC50 values were calculated from the relationship curve of %scavenging versus sample concentration.

HeLa cells [3] = test: Cell cycle analysis by flow cytometry; type: cell-based; details: 24 h, 2f, 2j, quercetin at IC50, paclitaxel 5 μM
Procedure: The paclitaxel (5 μM) was performed as the positive control.
The treatment of HeLa cells and compounds was the same as in the apoptosis protocol. The cells were harvested for 200 μL and centrifuged at 600× g for 5 min and washed with PBS. The mixing cells were slowly added 200 μL of ice-cold 70% ethanol and incubated for at least 3 h at −20 °C. Cells were centrifuged and washed with PBS. Finally, cells were stained with 200 μL of Muse® cell cycle reagent and incubated at room temperature for 30 min in the dark. The cell was analyzed by flow cytometry (Guava Muse Cell Analyzer, Luminex, Austin, TX, USA).

HeLa cells [4] = test: Cell migration/invasion scratch assay, HeLa; type: cell-based; details: 100 μM, 24 h
Procedure: Cell migration in the HEK293 and the HeLa cell lines was investigated. The assay was conducted to investigate cell maintenance after being damaged. […] Cells were grown in a 24-well plate until 80% confluence and treated with 2f and 2j for 24 or 48 h compared to the untreated control. The cells in each well were then scratched to create a wound area across the center of the plates using a plastic 20 μL pipette tip. Cell images were taken immediately, and the scratch area was measured at 0, 24, and 48 h. During the experiment, the percentage of wound area was tracked as an indirect assessment. Compared to the control, the percentage of empty area change at each time point was quantified with a Nikon eclipse Ts2R inverted microscope.
Pictures were taken at the start of the experiment (0 h) and 24 h later. […] Scale bars represent 500 μm.

[5] = DPPH radical scavenging assay; type: biochemical; set-up: DPPH517nm % SA ± SD: dose or concentration left out as unconfirmed; details: for DPPH517nm % SA ± SD: mean of three measurements; for EC50: read-out: DPPH517nm EC50 ± SD
From the text: as §1
The DPPH method was followed and modified from a previous study. Trolox was used as a reference. The DPPH stock solution at a concentration of 0.625 mM was prepared in 50% ethanol and kept at 4 °C in the dark. On the day of the experiment, 0.208 mM fresh DPPH working solution was freshly prepared by further diluting with 50% ethanol. […] Each reaction was carried out in a 96-well plate, and 100 μL of test preparation and DPPH solution were added. The 96-well plate was then shaken well for 10 min and kept in the dark at room temperature for 20 min, and the absorbance was recorded at 515–517 nm. According to the method described, delocalization also results in a deep violet color and is quantified as a percentage of scavenging activity. % scavenging activity (SA) = 100 × (Asample − Ablank)/(Acontrol − Ablank)(1) where Acontrol and Asample are the absorbances of the test DPPH without and with a sample, respectively. Ablank is the absorbance of the solvent used. The EC50 values were calculated from the relationship curve of %SA versus sample concentration. The experiment was carried out at least in triplicate.

Row | Structure (SMILES) | FRAP593nm Value ± SD (TE) [1] | ABTS734nm % Scavenging at 500 µM [2] | EC50 [2] | Cell cycle phase arrest (HeLa cells [3]) | Cell population in G0/G1 phase (HeLa cells [3]) | Cell population in G2/M phase (HeLa cells [3]) | Cell population in S phase (HeLa cells [3]) | Invasion of HeLa cells (HeLa cells [4]) | DPPH517nm % SA ± SD [5] | EC50 [5] | Cell population in S phase (HeLa cells [3]; listed as quercetin)
1 | O=C(c1ccccc1)c1c(-c2ccccc2)oc2c(O)c(O)ccc2c1=O [2f, 3-Benzoyl-7,8-dihydroxy-2-phenyl-4H-chromen-4-one] | 1.70 ± 0.138 µM Trolox/1 µM of Synthesized Compounds | 81.63 ± 1.80% | 10.2 ± 0.7 µM | S phase arrest | 41.26 ± 1.21% | 24.71 ± 4.02% | 34.03% and 34.03 ± 3.81 % | significantly inhibited the invasion of HeLa cells | 93.55 ± 3.20% | 34.1 ± 3.28 µM | –
2 | O=C(Oc1ccc2c(=O)c(C(=O)c3ccccc3)c(-c3ccccc3)oc2c1O)c1ccccc1 [2j, 3-Benzoyl-8-hydroxy-4-oxo-2-phenyl-4H-chromen-7-yl benzoate] | 0.34 ± 0.078 µM Trolox/1 µM of Synthesized Compounds | >95% | 22.2 ± 0.39 µM | S phase arrest | 32.90 ± 4.05% | 35.49 ± 4.98% | 31.61% and 31.61 ± 0.93 % | significantly inhibited the invasion of HeLa cells | 92.88 ± 0.46% | 49.9 ± 11 µM | –
3 | O=c1c(O)c(-c2ccc(O)c(O)c2)oc2cc(O)cc(O)c12 [Quercetin, quercetin, reference compound] | 3.35 ± 0.231 µM Trolox/1 µM of Synthesized Compounds | 88.51 ± 0.80% | 11.4 ± 0.17 µM | S phase arrest | 35.72 ± 2.67% | 26.40 ± 0.18% | 37.88 ± 2.75 % | significantly inhibited the invasion of HeLa cells | 93.89 ± 2.04% | 18.3 ± 5.62 µM | 37.88%
